According to patent US4960790A, “Derivatives of taxol, pharmaceutical compositions thereof and methods for the preparation thereof” (University of Kansas, priority 1989, dated 1990):

What was measured:
[1] = test system: B-16 melanoma cells; assay: In vitro B16 melanoma cell proliferation; type: cell-based; details: rank order
Experimental: These studies were conducted according to standard procedures as described in Donoso and Himes, Cancer Biochem. Biophysics, vol. 7, (1984), p. 133.

[2] = test system: microtubules; details: in vitro / cells, in words; cited from earlier work
[3] = in words; cited from earlier work
[4] = test system: tumors; details: in words; cited from earlier work
[5] = test system: microtubule assembly; assay: In vitro microtubule assembly kinetics; type: biochemical; details: rank order
Experimental: (A) In vitro Microtubule Assembly Kinetics Studies
The microtubule assembly study was conducted using both 2' and 7-derivatives according to the in vitro procedures disclosed, for example, in Mellado et al., Biochemical and Biophysical Research Communications, Vol. 124, No. 2 (1984), pp. 329-336; Magri et al., J. Org. Chem., 51, 797-802 (1986); and Parness et al., Biochemical and Biophysical Research Communications, Vol. 105, No. 3, pp. 1082-1091 (1982).

[6] = test system: human mammary carcinoma MX-1 xenograft; assay: Subrenal capsule human mammary carcinoma MX-1 xenograft in mice; details: for ANML BODY WT DIFF (test minus control) / TEST BODY WT CHG / # OF ANMLS ALIVE CALC/TOTAL / Average tumor WEIGHT CHANGE (DELTA) / Average tumor weight, FINAL: Q4D; for ANML BODY WT DIFF (test minus control) / TEST BODY WT CHG: Day 1 to 11; for # OF ANMLS ALIVE CALC/TOTAL / Average tumor WEIGHT CHANGE (DELTA) / Average tumor weight, FINAL / % T/C: Day 11; for % T/C: Q4D Days 1, 5, 9
Description: The procedures followed are those described at pages 23-24 of NIH Publication No. 84-2635, In Vivo Cancer Model (February 1984).
In the procedure, test groups of mice (6 mice per test group) and control groups of 12 mice per group are utilized. A tumor fragment (human mammary carcinoma MX-1 xenograft), is implanted under the membranous covering of the kidney of each mouse.
Day 0: Anesthetize animals. Record body weight (Weigh Day 1). Implant tumor, measure and record. Randomize animals after they recover from the anesthetic. Run bacterial cultures. Determine solubilities of test agent. Record deaths daily.
Day 1: Check cultures. Discard experiment if contaminated. Prepare test materials. Initiate test agent injections (in the nape of the neck) based on individual body weight. Treatment is Q4D on Days 1, 5, and 9. Prepare test agent fresh on each injection day and administer based on individual body weight for that day.
Days 5 and 9: Prepare test agent fresh on each injection day and administer based on individual body weight for that day.
Day 11: End and evaluate experiment. Record body weights (Weigh Day 2). Measure tumor in OMU's (Ocular Micrometer Unit--10 OMU's=1 mm) and record.
The parameter measured is mean tumor weight change (delta) based on length and width measurements in millimeters. Mean animal body weights are computed for Day 1 and Day 11, compute T/C for all test groups with>65% survivors on Day 11. An excessive body weight change difference (test minus control) may also be used in evaluating toxicity. The dimensions are measured and recorded in Ocular Micrometer Units (OMU). A computer is utilized for the following:
(1) Converts OMU's to millimeters (mm).
(2) Calculates tumor weights (mgs) from tumor dimensions (mm×mm) following the formula for the volume of a prolate ellipsoid: [formula] (3) Calculates the change (delta) in mean tumor weight for each group of mice:
Change in Mean Tumor Weight=Mean Tumor WeightFINAL -Mean Tumor WeightINITIAL.
(4) Calculates the change (delta) in mean tumor weight for test (T) and control (C) groups.
(5) Calculates T/C% for all test groups with>65% survivors on Final Evaluation Day: [formula]

## CC(=O)O[C@H]1C(=O)[C@@]2(C)[C@H]([C@H](OC(=O)c3ccccc3)[C@]3(O)C[C@H](OC(=O)[C@H](O)[C@@H](NC(=O)c4ccccc4)c4ccccc4)C(C)=C1C3(C)C)[C@]1(OC(C)=O)CO[C@@H]1C[C@@H]2O [Taxol]
[1]
  Order of effectiveness in B-16 melanoma cell proliferation study: taxol>2'-(N,N-dimethylglycyl)taxol>2'-(N,N-diethylaminopropionyl)taxol>7-(N,N-dimethylglycyl)taxol
[2]
  Effect on microtubules: promotes the assembly of microtubules but inhibits their disassembly
[3]
  Water solubility: only very slightly soluble in water
[4]
  Antitumor activity: potent antitumor activity against a wide variety of tumors
[5]
  Ability to assemble microtubules (order): taxol >7-(N,N-dimethylglycyl)taxol(11)>2'(N,N-diethylaminopropionyl)taxol(8)>2'(N,N-dimethylglycyl)taxol(2)
[6]; Table 1, 4.45 mg/kg
  ANML BODY WT DIFF (test minus control): .5
  TEST BODY WT CHG: -1.2
  # OF ANMLS ALIVE CALC/TOTAL: 5/5
  Average tumor WEIGHT CHANGE (DELTA): -.79 MGS
  Average tumor weight, FINAL: .00 MGS
[6]; Table 1, 6.67 mg/kg
  ANML BODY WT DIFF (test minus control): .2
  TEST BODY WT CHG: -1.5
  # OF ANMLS ALIVE CALC/TOTAL: 5/5
  Average tumor WEIGHT CHANGE (DELTA): -.74 MGS
  Average tumor weight, FINAL: .00 MGS
[6]; Table 1, 10.00 mg/kg
  % T/C: -84%
  ANML BODY WT DIFF (test minus control): -.3
  TEST BODY WT CHG: -2.0
  # OF ANMLS ALIVE CALC/TOTAL: 6/6
  Average tumor WEIGHT CHANGE (DELTA): -.49 MGS
  Average tumor weight, FINAL: .09 MGS
[6]; Table 1, 15.00 mg/kg
  ANML BODY WT DIFF (test minus control): -2.5
  TEST BODY WT CHG: -4.2
  # OF ANMLS ALIVE CALC/TOTAL: 6/6
  Average tumor WEIGHT CHANGE (DELTA): -.81 MGS
  Average tumor weight, FINAL: .00 MGS
[6]; Table 1, 22.40 mg/kg
  % T/C: TOX
  ANML BODY WT DIFF (test minus control): -.9
  TEST BODY WT CHG: -2.6
  # OF ANMLS ALIVE CALC/TOTAL: 3/6
  Average tumor weight, FINAL: .00 MGS
[6]; Table 2, 1.88 mg/kg
  % T/C: 5%
  ANML BODY WT DIFF (test minus control): 3.0
  TEST BODY WT CHG: -1.0
  # OF ANMLS ALIVE CALC/TOTAL: 4/5
  Average tumor WEIGHT CHANGE (DELTA): .71 MGS
  Average tumor weight, FINAL: 1.51 MGS
[6]; Table 2, 3.75 mg/kg
  ANML BODY WT DIFF (test minus control): 1.1
  TEST BODY WT CHG: -2.9
  # OF ANMLS ALIVE CALC/TOTAL: 4/5
  Average tumor WEIGHT CHANGE (DELTA): -.71 MGS
  Average tumor weight, FINAL: .00 MGS
[6]; Table 2, 7.50 mg/kg
  % T/C: TOX
  ANML BODY WT DIFF (test minus control): 2.3
  TEST BODY WT CHG: -1.7
  # OF ANMLS ALIVE CALC/TOTAL: 3/5
  Average tumor weight, FINAL: .00 MGS
[6]; Table 2, 15.00 mg/kg
  % T/C: TOX
  # OF ANMLS ALIVE CALC/TOTAL: 0/5
